In patent US9796720B2, “Imidazole-derived modulators of the glucocorticoid receptor” (BRISTOL-MYERS SQUIBB COMPANY, priority 2013, dated 2017):
Where two headings read alike, the source gives them in different places.

Key:
[1] = test system: AP-1; test: Cellular transrepressional assay (AP-1 luciferase reporter in A549 cells, PMA-activated); format: cell-based; settings: for EC50: read-out: AP-1 (EC50, nM) (measured in cellular transrepression assay); for Emax: read-out: AP-1 Max % inhibition (measured in cellular transrepression assay)
Experimental: Cellular Transrepressional Assay
To measure the ability of test molecules to inhibit AP-1 induced transcriptional activity we utilized an A549 cell which was stably transfected with a plasmid containing 7×AP-1 DNA binding sites (pAP-1-Luc plasmid, Stratagene Co. La Jolla, Calif.) followed by the gene for luciferase. Cells were activated with 10 ng/ml of phorbol myristic acid (PMA) plus or minus test molecules for 7 hours. After 7 hours a luciferase reagent was added to measure luciferase enzymatic activity in the cell. After a 10 minute incubation of luciferase reagent with cells, luminescence was measured in a TOPCOUNT® luminescence counter. Repression of AP-1 activity was calculated as the percentage decrease in the signal induced by PMA alone. Test molecules were analyzed in the concentration range from 0.1 nM to 40 μM. EC50s were determined by using standard curve fitting methods such as Excel fit (Microsoft Co.). An EC50 is the test molecule concentration at which there is a 50% repression of the maximal inhibition of transcription, i.e., a 50% reduction of AP-1 activity.

[2] = target: human full-length glucocorticoid receptor (Homo sapiens (Human), UniProt P04150); test: Glucocorticoid Receptor Binding Assay (II), fluorescence polarization competitor assay; settings: recombinant human full-length GR cell lysate, Fluormone GS1; read-out: GR (Ki, nM) (measured in GR binding Assay II)
Experimental: Glucocorticoid Receptor Binding Assay (II)
In order to measure the binding of compounds on the glucocorticoid receptor a commercially available kit was used (Glucocorticoid receptor competitor assay kit, PanVera Co., Madison, Wis., P2816). Briefly, a cell lysate containing recombinantly expressed human full-length glucocorticoid receptor was mixed with a fluorescently labeled glucocorticoid (1 nM Fluormone GS1) in the presence or absence of test compound. After one hour at room temperature, the fluorescence polarization (FP) of the samples were measured.

[3] = A549 cells, 7xAP-1 luciferase, PMA 10 ng/ml, 7 hours

Chain of human full-length glucocorticoid receptor (P04150 whole entry): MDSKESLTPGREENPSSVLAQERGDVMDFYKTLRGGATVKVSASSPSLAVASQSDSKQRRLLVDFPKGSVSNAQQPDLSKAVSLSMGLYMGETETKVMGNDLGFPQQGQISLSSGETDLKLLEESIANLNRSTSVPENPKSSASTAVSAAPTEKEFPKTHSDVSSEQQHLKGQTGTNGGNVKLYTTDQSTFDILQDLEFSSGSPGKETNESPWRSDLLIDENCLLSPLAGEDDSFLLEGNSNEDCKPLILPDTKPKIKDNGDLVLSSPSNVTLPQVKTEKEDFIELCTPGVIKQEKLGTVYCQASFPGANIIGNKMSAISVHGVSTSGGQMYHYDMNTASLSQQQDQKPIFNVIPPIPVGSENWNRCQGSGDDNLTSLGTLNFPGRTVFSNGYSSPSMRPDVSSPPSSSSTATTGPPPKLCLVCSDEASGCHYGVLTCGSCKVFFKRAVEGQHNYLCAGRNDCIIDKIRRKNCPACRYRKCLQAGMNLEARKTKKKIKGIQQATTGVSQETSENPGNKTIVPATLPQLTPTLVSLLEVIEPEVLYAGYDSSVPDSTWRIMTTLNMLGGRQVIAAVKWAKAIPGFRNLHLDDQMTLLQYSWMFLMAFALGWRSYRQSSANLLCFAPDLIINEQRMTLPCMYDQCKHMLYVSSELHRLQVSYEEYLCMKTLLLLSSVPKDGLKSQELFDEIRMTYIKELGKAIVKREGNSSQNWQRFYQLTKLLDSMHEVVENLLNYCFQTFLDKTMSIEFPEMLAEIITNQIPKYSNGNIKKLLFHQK

Row | Compound | Ki [2] [nM] | EC50 [1, 3] [nM] | EC50 ([1]; 7 h) [nM] | Emax ([1]; 7 h) [%] | Emax [1, 3] [%]
1 | CC(=O)c1ccc(-c2ccc3c(n2)Oc2c(F)cccc2[C@@H]3C(C)(C)c2nc3nccnc3[nH]2)cc1 [Example 2, (S)-1-(4-(5-(2-(1H-Imidazo[4,5-b]pyrazin-2-yl)propan-2-yl)-9-fluoro-5H-chromeno[2,3-b]pyridin-2-yl)phenyl)ethanone] | 3.28 | – | 4.39 | 59.7 | –
2 | CC(C)Oc1ccc(-c2ccc3c(n2)Oc2c(F)cccc2[C@@H]3C(C)(C)c2nc3nccnc3[nH]2)cc1F [Example 10, (S)-5-(2-(1H-Imidazo[4,5-b]pyrazin-2-yl)propan-2-yl)-9-fluoro-2-(3-fluoro-4-isopropoxyphenyl)-5H-chromeno[2,3-b]pyridine] | 0.67 | 20.1 | – | – | 70.2
3 | COC(=O)c1ccc(-c2ccc3c(n2)Oc2c(F)cccc2[C@@H]3C(C)(C)c2nc3nccnc3[nH]2)cn1 [Example 26, (S)-Methyl 5-(5-(2-(1H-imidazo[4,5-b]pyrazin-2-yl)propan-2-yl)-9-fluoro-5H-chromeno[2,3-b]pyridin-2-yl)picolinate] | 144 | 5000 | – | – | 14.3
4 | CC(C)(c1nc2cccnc2[nH]1)[C@@H]1c2ccc(-c3ccc(C(=O)N4CCOCC4)cc3)nc2Oc2c(F)cccc21 [Example 15, (S)-(4-(5-(2-(3H-Imidazo[4,5-b]pyridin-2-yl)propan-2-yl)-9-fluoro-5H-chromeno[2,3-b]pyridin-2-yl)phenyl)(morpholino)methanone] | 121 | 864 | – | – | 29.3
5 | CC(C)(C)Oc1ccc(-c2ccc3c(n2)Oc2c(F)cccc2[C@@H]3C(C)(C)c2nc3nccnc3[nH]2)cc1 [Example 11, (S)-5-(2-(1H-Imidazo[4,5-b]pyrazin-2-yl)propan-2-yl)-2-(4-tert-butoxyphenyl)-9-fluoro-5H-chromeno[2,3-b]pyridine] | 0.82 | – | 37.5 | 76.3 | –
6 | CC(C)(c1nc2nccnc2[nH]1)[C@@H]1c2ccc(-c3ccc(C(=O)N4CCOCC4)nc3)nc2Oc2c(F)cccc21 [Example 30, (S)-(5-(5-(2-(1H-Imidazo[4,5-b]pyrazin-2-yl)propan-2-yl)-9-fluoro-5H-chromeno[2,3-b]pyridin-2-yl)pyridin-2-yl)(morpholino)methanone] | 30.3 | 179 | – | – | 57
7 | CC(C)(c1nc2nccnc2[nH]1)[C@@H]1c2ccc(-c3ccc(C(=O)N4CCOCC4)cc3)nc2Oc2c(F)cccc21 [Example 1, (S)-(4-(5-(2-(1H-Imidazo[4,5-b]pyrazin-2-yl)propan-2-yl)-9-fluoro-5H-chromeno[2,3-b]pyridin-2-yl)phenyl)(morpholino)methanone] | 57 | 8.33 | – | – | 65.2
8 | CC(C)(c1nc2cncnc2[nH]1)[C@@H]1c2ccc(-c3ccc(C(=O)N4CCOCC4)cc3)nc2Oc2c(F)cccc21 [Example 16, (S)-(4-(5-(2-(9H-Purin-8-yl)propan-2-yl)-9-fluoro-5H-chromeno[2,3-b]pyridin-2-yl)phenyl)(morpholino)methanone] | 12.4 | 169 | – | – | 52.2
9 | CC(C)(O)c1ccc(-c2ccc3c(n2)Oc2c(F)cccc2[C@@H]3C(C)(C)c2nc3nccnc3[nH]2)cn1 [Example 27, (S)-2-(5-(5-(2-(1H-Imidazo[4,5-b]pyrazin-2-yl)propan-2-yl)-9-fluoro-5H-chromeno[2,3-b]pyridin-2-yl)pyridin-2-yl)propan-2-ol] | 9.3 | 28.4 | – | – | 53.6
10 | CC(C)Oc1ccc(-c2ccc3c(n2)Oc2c(F)cccc2[C@@H]3C(C)(C)c2nc3nccnc3[nH]2)cc1Cl [Example 9, (S)-5-(2-(1H-Imidazo[4,5-b]pyrazin-2-yl)propan-2-yl)-2-(3-chloro-4-isopropoxyphenyl)-9-fluoro-5H-chromeno[2,3-b]pyridine] | 2.1 | 291 | – | – | 43.7
11 | CC(C)S(=O)(=O)c1ccc(-c2ccc3c(n2)Oc2c(F)cccc2[C@@H]3C(C)(C)c2nc3nccnc3[nH]2)cc1 [Example 7, (S)-5-(2-(1H-Imidazo[4,5-b]pyrazin-2-yl)propan-2-yl)-9-fluoro-2-(4-(isopropylsulfonyl)phenyl)-5H-chromeno[2,3-b]pyridine] | 1.4 | – | 12.2 | 54.2 | –

Continued, in another order:

Row | Ki [2] [nM] | EC50 [1, 3] [nM] | Compound | EC50 ([1]; 7 h) [nM] | Emax ([1]; 7 h) [%] | Emax [1, 3] [%]
12 | 0.66 | 14.4 | CCOc1ccc(-c2ccc3c(n2)Oc2c(F)cccc2[C@@H]3C(C)(C)c2nc3nccnc3[nH]2)cc1 [Example 12, (S)-5-(2-(1H-Imidazo[4,5-b]pyrazin-2-yl)propan-2-yl)-2-(4-ethoxyphenyl)-9-fluoro-5H-chromeno[2,3-b]pyridine] | – | – | 62.6
13 | 5.43 | 129 | CN(C)c1ccc(-c2ccc3c(n2)Oc2c(F)cccc2[C@@H]3C(C)(C)c2nc3nccnc3[nH]2)cn1 [Example 29, (S)-5-(5-(2-(1H-Imidazo[4,5-b]pyrazin-2-yl)propan-2-yl)-9-fluoro-5H-chromeno[2,3-b]pyridin-2-yl)-N,N-dimethylpyridin-2-amine] | – | – | 44.9
14 | 2.63 | 4.94 | CN(C)C(=O)c1ccc(-c2ccc3c(n2)Oc2c(F)cccc2[C@@H]3C(C)(C)c2nc3nccnc3[nH]2)cc1 [Example 4, (S)-4-(5-(2-(1H-Imidazo[4,5-b]pyrazin-2-yl)propan-2-yl)-9-fluoro-5H-chromeno[2,3-b]pyridin-2-yl)-N,N-dimethylbenzamide] | – | – | 73.1
15 | 16 | 61.1 | CC(C)(c1nc2nccnc2[nH]1)[C@@H]1c2ccc(-c3ccc(N4CCOCC4)cc3)nc2Oc2c(F)cccc21 [Example 18, (S)-5-(2-(1H-Imidazo[4,5-b]pyrazin-2-yl)propan-2-yl)-9-fluoro-2-(4-morpholinophenyl)-5H-chromeno[2,3-b]pyridine] | – | – | 50.6
16 | 2.91 | 19.9 | CC(C)(c1nc2nccnc2[nH]1)[C@@H]1c2ccc(-c3ccc(N)cc3)nc2Oc2c(F)cccc21 [Example 22, (S)-4-(5-(2-(1H-Imidazo[4,5-b]pyrazin-2-yl)propan-2-yl)-9-fluoro-5H-chromeno[2,3-b]pyridin-2-yl)aniline] | – | – | 51
17 | 2.34 | 15.5 | CCS(=O)(=O)c1ccc(-c2ccc3c(n2)Oc2c(F)cccc2[C@@H]3C(C)(C)c2nc3nccnc3[nH]2)cc1 [Example 6, (S)-5-(2-(1H-Imidazo[4,5-b]pyrazin-2-yl)propan-2-yl)-2-(4-(ethylsulfonyl)phenyl)-9-fluoro-5H-chromeno[2,3-b]pyridine] | – | – | 58.2
18 | 2.35 | 3.85 | CC(C)(O)c1ccc(-c2ccc3c(n2)Oc2c(F)cccc2[C@@H]3C(C)(C)c2nc3nccnc3[nH]2)cc1 [Example 3, (S)-2-(4-(5-(2-(1H-Imidazo[4,5-b]pyrazin-2-yl)propan-2-yl)-9-fluoro-5H-chromeno[2,3-b]pyridin-2-yl)phenyl)propan-2-ol] | – | – | 65
19 | 2.36 | 55.1 | CC(C)(c1nc2nccnc2[nH]1)[C@@H]1c2ccc(-c3ccc(OC(F)(F)F)cc3)nc2Oc2c(F)cccc21 [Example 13, (S)-5-(2-(1H-Imidazo[4,5-b]pyrazin-2-yl)propan-2-yl)-9-fluoro-2-(4-(trifluoromethoxy)phenyl)-5H-chromeno[2,3-b]pyridine] | – | – | 55.5
20 | 1.4 | 14.2 | CC(C)(c1nc2nccnc2[nH]1)[C@@H]1c2ccc(-c3ccccc3)nc2Oc2c(F)cccc21 [Example 20, (S)-5-(2-(1H-Imidazo[4,5-b]pyrazin-2-yl)propan-2-yl)-9-fluoro-2-phenyl-5H-chromeno[2,3-b]pyridine] | – | – | 40
21 | 1.94 | 15 | Cn1nnnc1-c1ccc(-c2ccc3c(n2)Oc2c(F)cccc2[C@@H]3C(C)(C)c2nc3nccnc3[nH]2)cc1 [Example 31, (S)-5-(2-(1H-Imidazo[4,5-b]pyrazin-2-yl)propan-2-yl)-9-fluoro-2-(4-(1-methyl-1H-tetrazol-5-yl)phenyl)-5H-chromeno[2,3-b]pyridine] | – | – | 48.6
22 | 1.9 | 37.3 | CC(C)(c1nc2nccnc2[nH]1)[C@@H]1c2ccc(-c3ccc(N4CCCC4=O)cc3)nc2Oc2c(F)cccc21 [Example 24, (S)-1-(4-(5-(2-(1H-Imidazo[4,5-b]pyrazin-2-yl)propan-2-yl)-9-fluoro-5H-chromeno[2,3-b]pyridin-2-yl)phenyl)pyrrolidin-2-one] | – | – | 69.4
23 | 70.5 | 1950 | CC(=O)Nc1ccc(-c2ccc3c(n2)Oc2c(F)cccc2[C@@H]3C(C)(C)c2nc3nccnc3[nH]2)cc1 [Example 19, (S)-N-(4-(5-(2-(1H-Imidazo[4,5-b]pyrazin-2-yl)propan-2-yl)-9-fluoro-5H-chromeno[2,3-b]pyridin-2-yl)phenyl)acetamide] | – | – | 44.6
